By EC50 is commonly meant the concentration giving half of the maximal effect.

Like-named read-outs stand apart in the source and are kept apart here.

This data set has as its system Dkk1-LRP5-TCF-Luciferase. Description: Functional Dkk1-LRP5-TCF-Luciferase Assay in U2OS Cells. The note with it: for fold induction at 2 µM / fold induction at 20 µM / EC50: Homo sapiens, U2OS; for A = MAX FOLD Induction/DMSO CONTROL: maximum fold induction over DMSO control.
[1] abbreviates: read-out: B = TCF ACTIVITY/DMSO CONTROL Fold induction @ 2.0 uM, 2.0 uM compound.
Where [2] appears, read: read-out: C = TCF ACTIVITY/DMSO CONTROL Fold induction @ 20.0 uM, 20.0 uM compound.

As for `c1ccc2cc(-c3ccnc(N4CCC(CN5CCNCC5)CC4)n3)ccc2c1` [4-(2-naphthyl)-2-[4-(piperazin-1-ylmethyl)piperidin-1-yl]pyrimidine], the “A = MAX FOLD Induction/DMSO CONTROL” value turned out to be 2.510 fold. Further, the fold induction at 2 µM under setting [1] came out at 5.17. The fold induction at 20 µM under setting [2] is 0.01.

`O[C@@H]1CCCN([C@H]2CCN(c3nccc(-c4ccc5ccccc5c4)n3)C2)C1` [(3R)-1-{(3S)-1-[4-(2-naphthyl)pyrimidin-2-yl]pyrrolidin-3-yl}piperidin-3-ol]: the fold induction at 20 µM under setting [2] is 2.9.

Take `O=C(N[C@H]1CCN(c2nccc(-c3ccc4ccccc4c3)n2)C1)c1ccc(Cl)cc1` [4-chloro-N-{(3S)-1-[4-(2-naphthyl)pyrimidin-2-yl]pyrrolidin-3-yl}benzamide]: the fold induction at 2 µM under setting [1] was 1.78.

With `COC(=O)NCC1CCN(c2nccc(-c3ccc4ccccc4c3)n2)C1` (centres unmarked) [methyl ({1-[4-(2-naphthyl)pyrimidin-2-yl]pyrrolidin-3-yl}methyl)carbamate], the fold induction at 2 µM under setting [1] came out at 1.04. Besides, under setting [2], the fold induction at 20 µM is 1.08.

With `CC(=O)NCC1CN(c2nccc(-c3ccc4ccccc4c3)n2)C1` [N-({1-[4-(2-naphthyl)pyrimidin-2-yl]azetidin-3-yl}methyl)acetamide], under setting [1], the fold induction at 2 µM was determined as 0.69. The fold induction at 20 µM under setting [2] came out at 1.76.

On to `CC(C)(C)OC(=O)N1CC[C@@H](CNc2nccc(-c3ccc4ccccc4c3)n2)C1` [tert-butyl (3S)-3-({[4-(2-naphthyl)pyrimidin-2-yl]amino}methyl)pyrrolidine-1-carboxylate], for which the fold induction at 20 µM under setting [2] was found to be 0.01.

For `O=C1N[C@H](C2CCN(c3nccc(-c4ccc5ccccc5c4)n3)CC2)CO1` [(4R)-4-{1-[4-(2-naphthyl)pyrimidin-2-yl]piperidin-4-yl}-1,3-oxazolidin-2-one], the fold induction at 2 µM under setting [1] came out at 1.4. The fold induction at 20 µM under setting [2] is 0.01.

As for `CC(=O)N1CC[C@H](Nc2nccc(-c3ccc4ccccc4c3)n2)C1` [N-[(3S)-1-acetylpyrrolidin-3-yl]-4-(2-naphthyl)pyrimidin-2-amine], the fold induction at 2 µM under setting [1] is 1.15. For the same molecule, the fold induction at 20 µM under setting [2] is 1.66.

As to `O=C(NCC1CCN(c2nccc(-c3ccc4ccccc4c3)n2)CC1)c1ccccc1` [N-({1-[4-(2-naphthyl)pyrimidin-2-yl]piperidin-4-yl}methyl)benzamide], the fold induction at 2 µM under setting [1] worked out at 1.69.

As to `c1ccc2cc(-c3ccnc(N4CC[C@@H](N5CCCCCC5)C4)n3)ccc2c1` [1-{(3R)-1-[4-(2-naphthyl)pyrimidin-2-yl]pyrrolidin-3-yl}azepane], the fold induction at 2 µM under setting [1] was 1.25. Further, the fold induction at 20 µM under setting [2] came to 1.3.

In the case of `CS(=O)(=O)OCCC1CCN(c2nccc(-c3ccc4ccccc4c3)n2)CC1` [2-{1-[4-(2-naphthyl)pyrimidin-2-yl]piperidin-4-yl}ethyl methanesulfonate], under setting [1], the fold induction at 2 µM was 1.02. For the same molecule, the fold induction at 20 µM under setting [2] amounted to 1.18.

Turning to `O[C@H]1CCN([C@H]2CCN(c3nccc(-c4ccc5ccccc5c4)n3)C2)C1` [(3S,3′S)-1′-[4-(2-naphthyl)pyrimidin-2-yl]-1,3′-bipyrrolidin-3-ol], the fold induction at 2 µM under setting [1] turned out to be 2.1.

Take `CCNC(=O)N1CCC(CNc2nccc(-c3ccc4ccccc4c3)n2)CC1` [N-ethyl-4-({[4-(2-naphthyl)pyrimidin-2-yl]amino}methyl)piperidine-1-carboxamide]: the fold induction at 2 µM under setting [1] worked out at 1.35. Besides, the fold induction at 20 µM under setting [2] stood at 1.3.

Consider `COC(=O)[C@H](N)C1CCN(c2nccc(-c3ccc4ccccc4c3)n2)CC1` [methyl (2R)-amino{1-[4-(2-naphthyl)pyrimidin-2-yl]piperidin-4-yl}acetate], for which the EC50 came out at 8.86 µM and the “A = MAX FOLD Induction/DMSO CONTROL” value was determined as 3.200 fold. For the same molecule, the fold induction at 2 µM under setting [1] stood at 1.68. Also, the fold induction at 20 µM under setting [2] is 1.05.

Consider `O[C@H]1CCCN([C@@H]2CCN(c3nccc(-c4ccc5ccccc5c4)n3)C2)C1` [(3S)-1-{(3R)-1-[4-(2-naphthyl)pyrimidin-2-yl]pyrrolidin-3-yl}piperidin-3-ol], for which a half-maximal response (EC50) required 2.4 µM.

`CN(c1nccc(-c2ccc3ccccc3c2)n1)C1CCN(C(N)=O)CC1` [4-{methyl[4-(2-naphthyl)pyrimidin-2-yl]amino}piperidine-1-carboxamide]: the fold induction at 2 µM under setting [1] is 1.65. Besides, the fold induction at 20 µM under setting [2] is 0.63.

Turning to `CN[C@@H]1CCN(c2nccc(-c3ccc4ccccc4c3)n2)C1` [(3R)—N-methyl-1-[4-(2-naphthyl)pyrimidin-2-yl]pyrrolidin-3-amine], the fold induction at 2 µM under setting [1] was found to be 1.2.

On to `Cc1ccc(S(=O)(=O)NCC2CN(c3nccc(-c4ccc5ccccc5c4)n3)C2)cc1` [4-methyl-N-({1-[4-(2-naphthyl)pyrimidin-2-yl]azetidin-3-yl}methyl)benzenesulfonamide], for which the fold induction at 2 µM under setting [1] turned out to be 1.16. Moreover, the fold induction at 20 µM under setting [2] was 0.28.

Take `COc1ccccc1-c1ccc2cc(-c3ccnc(N4CCC(CN)CC4)n3)ccc2c1` [1-(1-{4-[6-(2-methoxyphenyl)-2-naphthyl]pyrimidin-2-yl}piperidin-4-yl)methanamine]: the fold induction at 2 µM under setting [1] is 1.88.

In the case of `CS(=O)(=O)N1CCC(Nc2nccc(-c3ccc4ccccc4c3)n2)CC1` [N-[1-(methylsulfonyl)piperidin-4-yl]-4-(2-naphthyl)pyrimidin-2-amine], the EC50 stood at 0.06 µM and the “A = MAX FOLD Induction/DMSO CONTROL” value was determined as 1.730 fold. In addition, the fold induction at 2 µM under setting [1] amounted to 2.24. Under setting [2], the fold induction at 20 µM came out at 1.54.

As to `O=C(N[C@@H]1CCN(c2nccc(-c3ccc4ccccc4c3)n2)C1)C(F)(F)F` [2,2,2-trifluoro-N-{(3R)-1-[4-(2-naphthyl)pyrimidin-2-yl]pyrrolidin-3-yl}acetamide], the fold induction at 2 µM under setting [1] worked out at 1.97.

For `COc1ccc2cc(-c3ccnc(N4CCC(CN)CC4)n3)ccc2c1` [1-{1-[4-(6-methoxy-2-naphthyl)pyrimidin-2-yl]piperidin-4-yl}methanamine], the EC50 worked out at 1.06 µM and the “A = MAX FOLD Induction/DMSO CONTROL” value amounted to 3.233 fold. Under setting [1], the fold induction at 2 µM is 2.27.

`CC(=O)N1CCC(N(C)c2nccc(-c3ccc4ccccc4c3)n2)CC1` [N-(1-acetylpiperidin-4-yl)-N-methyl-4-(2-naphthyl)pyrimidin-2-amine]: the “A = MAX FOLD Induction/DMSO CONTROL” value was 1.650 fold. In addition, under setting [1], the fold induction at 2 µM was 1.37. Also, the fold induction at 20 µM under setting [2] was 0.37.

For `CCCNc1nccc(-c2ccc3ccccc3c2)n1` [4-(2-naphthyl)-N-propylpyrimidin-2-amine], the fold induction at 2 µM under setting [1] amounted to 1.28.

For the molecule `N=C(N)NCC1CCN(c2nccc(-c3ccc4ccccc4c3)n2)CC1` [N-({1-[4-(2-naphthyl)pyrimidin-2-yl]piperidin-4-yl}methyl)guanidine], the fold induction at 2 µM under setting [1] is 1.27. Also, the fold induction at 20 µM under setting [2] came to 0.02.

Take `O=C(N[C@H]1CCN(c2nccc(-c3ccc4ccccc4c3)n2)C1)c1ccccc1` [N-{(3S)-1-[4-(2-naphthyl)pyrimidin-2-yl]pyrrolidin-3-yl}benzamide]: under setting [1], the fold induction at 2 µM turned out to be 1.13. Also, the fold induction at 20 µM under setting [2] turned out to be 0.64.

Take `O=C(NC1CCCN(c2nccc(-c3ccc4ccccc4c3)n2)CC1)c1ccccc1` (centres unmarked) [N-{1-[4-(2-naphthyl)pyrimidin-2-yl]azepan-4-yl}benzamide]: under setting [1], the fold induction at 2 µM stood at 1.23. Further, the fold induction at 20 µM under setting [2] came to 1.07.

Consider `CC(C)(C)OC(=O)NC1CCCC(Nc2nccc(-c3ccc4ccccc4c3)n2)C1` (centres unmarked) [tert-butyl (3-{[4-(2-naphthyl)pyrimidin-2-yl]amino}cyclohexyl)carbamate], for which, under setting [1], the fold induction at 2 µM worked out at 1.07. Besides, the fold induction at 20 µM under setting [2] was 0.3.

`CCN(CC)C(=O)N1CCC(Nc2nccc(-c3ccc4ccccc4c3)n2)CC1` [N,N-diethyl-4-{[4-(2-naphthyl)pyrimidin-2-yl]amino}piperidine-1-carboxamide]: the fold induction at 2 µM under setting [1] turned out to be 1.65.

Consider `CCCN(C)CCN(C)[C@@H]1CCN(c2nccc(-c3ccc4ccccc4c3)n2)C1` [N,N′-dimethyl-N-{(3R)-1-[4-(2-naphthyl)pyrimidin-2-yl]pyrrolidin-3-yl}-N′-propylethane-1,2-diamine], for which the fold induction at 2 µM under setting [1] turned out to be 3.4.

For `O=C(c1ccccc1)N1CCC(CNc2nccc(-c3ccc4ccccc4c3)n2)CC1` [N-[(1-benzoylpiperidin-4-yl)methyl]-4-(2-naphthyl)pyrimidin-2-amine], the fold induction at 2 µM under setting [1] was determined as 1.44. In addition, under setting [2], the fold induction at 20 µM is 0.627.

Turning to `CN(C)CCCN(C)[C@@H]1CCN(c2nccc(-c3ccc4ccccc4c3)n2)C1` [N,N,N′-trimethyl-N′-{(3R)-1-[4-(2-naphthyl)pyrimidin-2-yl]pyrrolidin-3-yl}propane-1,3-diamine], the fold induction at 2 µM under setting [1] was 1.3.

On to `CN(C)S(=O)(=O)N[C@H]1CCN(c2nccc(-c3ccc4ccccc4c3)n2)C1` [N,N-dimethyl-N′-{(3S)-1-[4-(2-naphthyl)pyrimidin-2-yl]pyrrolidin-3-yl}sulfamide], for which the fold induction at 2 µM under setting [1] turned out to be 1.87.

Regarding `COC(=O)NCC1CN(c2nccc(-c3ccc4ccccc4c3)n2)C1` [methyl ({1-[4-(2-naphthyl)pyrimidin-2-yl]azetidin-3-yl}methyl)carbamate], the fold induction at 2 µM under setting [1] was found to be 1.28. In addition, the fold induction at 20 µM under setting [2] was found to be 1.08.

With `CN(C)C(=O)N1CCC(N(C)c2nccc(-c3ccc4ccccc4c3)n2)CC1` [N,N-dimethyl-4-{methyl[4-(2-naphthyl)pyrimidin-2-yl]amino}piperidine-1-carboxamide], under setting [1], the fold induction at 2 µM is 1.37. Under setting [2], the fold induction at 20 µM turned out to be 0.68.

Consider `NCCN1CCN(c2nccc(-c3ccc4ccccc4c3)n2)CC1` [(2-{4-[4-(2-naphthyl)pyrimidin-2-yl]piperazin-1-yl}ethyl)amine], for which the fold induction at 2 µM (read-out: B = TCF ACTIVITY/DMSO CONTROL Fold induction @ 2.0 uM) was 1. Under “read-out: C = TCF ACTIVITY/DMSO CONTROL Fold induction @ 20.0 uM”, the fold induction at 20 µM is 1.79.

The record behind these values is patent US20090054392A1, “NAPHTHYLPYRIMIDINE, NAPHTHYLPYRAZINE AND NAPHTHYLPYRIDAZINE ANALOGS AND THEIR USE AS AGONISTS OF THE WNT-BETA-CATENIN CELLULAR MESSAGING SYSTEM” (Wyeth, priority 2007, published 2009).
